Laboratory results published in article PMC9658984, “Acetylation Enhances the Anticancer Activity and Oral Bioavailability of 5-Demethyltangeretin” (International Journal of Molecular Sciences, 2022).

What was measured:
Format in all cases: cell-based, human
[1] = system: Bax; experiment: Western blot protein expression, Bax; details: PC-3 cells, 10 µM
Procedure: (§1) Western blot was performed to analyze the protein expression in the PC-3 Cells. The cells were exposed to indicated concentrations of 5-ATAN for various time periods at 37 °C. Then, they were washed with cold PBS and harvested, and a Western blot was conducted as previously described.

[2] = system: PC-3 cells; experiment: Colony formation assay; details: PC-3 cells, 1.25, 2.5 and 5 µM, 14 days
Procedure: The colony formation assay was conducted using a procedure modified from the previous report. PC-3 cells were seeded in 6-well plates at a density of 500 cells/well and allowed to attach for 24 h. Subsequently, the cells were treated with various concentrations of 5-ATAN. After 14 days of incubation, the colonies formed were observed by crystal violet staining and photographed. The wound healing assay was performed to assess the effect of 5-ATAN on the migration ability of PC-3 cells. Cells were seeded into a 6 cm dish at a cell density of 1 × 10^6 cells/well. After being cultured at 37 °C for 24 h, a 200 µL yellow pipette tip was used to scrape a gap in the middle of the dish. After washing twice with 1X PBS solution, the medium was replaced with fresh, serum-free medium containing different concentrations of 5-ATAN and incubated for 24 h. Then, the images were taken with an inverted phase contrast microscope at a magnification of 100×, and the Image J software was used for the measurement of the wound width. The percentage of cell migration (% of control) was calculated by measuring the movement of the cells into the scratch area after 24 h of treatment with DMSO or 5-ATAN.

[3] = system: PC-3 cells; experiment: Mitochondrial membrane potential (DiOC6, flow cytometry); details: 2.5-10 µM, 48 h
Procedure: The PC-3 cells were treated with the indicated concentration of 5-DTAN or 5-ATAN for 48 h, and then cells were collected and stained by a CaspGLOW^TM Fluorescein Active Caspase-3 Staining Kit (Thermo Fisher Scientific, MA, USA) or 3,3′-dihexyloxacarbocyanine iodide (DiOC6, Merck Millipore, Burlington, MA, USA) for caspase-3 activity and mitochondria membrane potential analysis, respectively. The percentages of caspase-3-activated or DiOC6-positive cells were measured using a flow cytometer and calculated by the CellQuest Pro software.

[4] = system: MMP-2; experiment: Western blot protein expression, MMP-2; details: PC-3 cells, 5 µM, only at 48 h
Procedure: as §1

COc1ccc(-c2cc(=O)c3c(OC(C)=O)c(OC)c(OC)c(OC)c3o2)cc1 [5-ATAN, 5-acetyloxy-6,7,8,4′-tetramethoxyflavone]
Expression of Bax [1]: slight increase
Number of colonies [2]: dose-dependently decreased
Effect on mitochondrial membrane potential [3]: dose-dependent decline
Expression of MMP-2 [4]: obviously inhibited
